US20160130278A1 (TAISHO PHARMACEUTICAL CO., LTD, priority 2013, published 2016)

Molecular target: T1, human type 1 glycine transporter (GlyT1) (Homo sapiens, UniProt P48067)
T1 construct: T98G cells (glioma cells) expressing human type 1 glycine transporter (GlyT1) were used
T1 sequence (P48067 1-706): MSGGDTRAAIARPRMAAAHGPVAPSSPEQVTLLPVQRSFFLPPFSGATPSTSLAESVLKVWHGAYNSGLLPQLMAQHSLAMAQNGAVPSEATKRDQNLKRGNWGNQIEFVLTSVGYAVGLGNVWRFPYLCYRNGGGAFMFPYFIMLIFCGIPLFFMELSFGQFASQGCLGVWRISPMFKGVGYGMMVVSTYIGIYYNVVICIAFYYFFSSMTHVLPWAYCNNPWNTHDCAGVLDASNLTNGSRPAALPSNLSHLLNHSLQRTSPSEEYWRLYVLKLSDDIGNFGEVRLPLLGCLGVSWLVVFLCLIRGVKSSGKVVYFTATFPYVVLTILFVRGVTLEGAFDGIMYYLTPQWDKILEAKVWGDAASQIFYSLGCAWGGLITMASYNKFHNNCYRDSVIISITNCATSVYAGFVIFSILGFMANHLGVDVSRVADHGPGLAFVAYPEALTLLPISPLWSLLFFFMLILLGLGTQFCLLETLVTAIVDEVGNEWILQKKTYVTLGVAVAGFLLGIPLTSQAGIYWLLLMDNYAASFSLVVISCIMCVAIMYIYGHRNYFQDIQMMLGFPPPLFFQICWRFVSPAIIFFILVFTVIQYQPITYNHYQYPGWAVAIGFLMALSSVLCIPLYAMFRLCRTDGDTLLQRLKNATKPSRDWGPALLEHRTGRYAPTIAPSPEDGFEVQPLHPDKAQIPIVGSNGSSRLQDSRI
Experiment: Glycine uptake inhibition experiment ([3H]glycine uptake)
Format: cell-based
Details: GlyT1
In short: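 T98G glioma cells expressing human GlyT1 were pretreated 10 min with compound in HEPES buffer pH 7.4 (0.2% BSA), then incubated with compound plus 250 nM final [3H]glycine for 15 min at room temperature. Intracellular radioactivity was counted after NaOH lysis; 10 μM ALX5407 defined non-specific uptake. IC50 came from 10^−9–10^−5 M curves.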

With `CCn1cc(-c2cccc(C(NC(=O)c3cccc(C)c3Cl)C3(O)CCC(F)(F)CC3)c2)cn1` (stereo not drawn) [Compound 126, 2-chloro-N-{(4,4-difluoro-1-hydroxycyclohexyl)[3-(1-ethyl-1H-pyrazol-4-yl)phenyl]methyl}-3-methylbenzamide] as the compound, how does the IC50 read?
The IC50 was 720 nM.

For `CCn1cc(-c2cccc(C(NC(=O)c3cccc(F)c3Cl)C3(O)CCC(F)(F)CC3)c2)cn1` (stereo not drawn) [Compound 209, 2-chloro-N-{(4,4-difluoro-1-hydroxycyclohexyl)[3-(1-ethyl-1H-pyrazol-4-yl)phenyl]methyl}-3-fluorobenzamide], which IC50 is on record?
The IC50 was 1200 nM.

For `O=C(NC(c1cccc(-c2cccnc2)c1)C1(O)CCC(F)(F)CC1)c1nccc(C(F)(F)F)c1Cl` (stereo not drawn) [Compound 146, 3-chloro-N-{(4,4-difluoro-1-hydroxycyclohexyl)[3-(pyridin-3-yl)phenyl]methyl}-4-(trifluoromethyl)pyridine-2-carboxamide], which IC50 is on record?
The IC50 was 140 nM.

For `COc1cc(C(F)(F)F)cc(C(F)(F)F)c1C(=O)NC(c1ccccc1)C1(O)CCCC1` (stereo not drawn) [Compound 29, N-[(1-hydroxycyclopentyl)(phenyl)methyl]-2-methoxy-4,6-bis(trifluoromethyl)benzamide], which IC50 is on record?
Its IC50 is 2000 nM.

`O=C(NC(c1ccccn1)[C@]1(O)CC[C@@H](F)CC1)c1nccc(C(F)(F)F)c1Cl` (single isomer, unassigned) [Compound 244, 3-chloro-N-[(cis-4-fluoro-1-hydroxycyclohexyl)(pyridin-2-yl)methyl]-4-(trifluoromethyl)pyridine-2-carboxamide] was tested. Which IC50 did it give?
The IC50 was 1000 nM.

For `O=C(NC(c1cccc(Br)c1)C1(O)CCC(F)(F)CC1)c1nccc(C(F)(F)F)c1Cl` (single isomer, unassigned) [Compound 90, N-[(3-bromophenyl)(4,4-difluoro-1-hydroxycyclohexyl)methyl]-3-chloro-4-(trifluoromethyl)pyridine-2-carboxamide], which IC50 is on record?
The IC50 was 300 nM.

How did the IC50 turn out when `O=C(NC(c1cccnc1Cl)[C@]1(O)CC[C@@H](F)CC1)c1nccc(C(F)(F)F)c1Cl` (single isomer, unassigned) [Compound 273, 3-chloro-N-[(2-chloropyridin-3-yl)(cis-4-fluoro-1-hydroxycyclohexyl)methyl]-4-(trifluoromethyl)pyridine-2-carboxamide] was run?
Its IC50 is 330 nM.

Which IC50 does the source give for `O=C(NC(c1ccc(F)cc1)C1(O)CCCC1)c1nccc(C(F)(F)F)c1Cl` (single isomer, unassigned) [Compound 58, 3-chloro-N-[(4-fluorophenyl)(1-hydroxycyclopentyl)methyl]-4-(trifluoromethyl)pyridine-2-carboxamide] here?
The IC50 was 760 nM.

With `O=C(NC(c1cccc(Cl)c1)C1(O)CCCC1)c1nccc(C(F)(F)F)c1Cl` (stereo not drawn) [Compound 45, 3-chloro-N-[(3-chlorophenyl)(1-hydroxycyclopentyl)methyl]-4-(trifluoromethyl)pyridine-2-carboxamide] as the compound, how does the IC50 read?
The IC50 was 90 nM.

For `O=C(NC(c1cccc(F)c1Cl)[C@]1(O)CC[C@@H](F)CC1)c1nccc2ncccc12` (single isomer, unassigned) [Compound 256, N-[(2-chloro-3-fluorophenyl)(cis-4-fluoro-1-hydroxycyclohexyl)methyl]-1,6-naphthyridin-5-carboxamide], which IC50 is on record?
Its IC50 is 2100 nM.

`O=C(NC(c1cccc(Br)c1)C1(O)CC=CCC1)c1nccc(C(F)(F)F)c1Cl` (stereo not drawn) [Compound 142, N-[(3-bromophenyl)(1-hydroxycyclohex-3-en-1-yl)methyl]-3-chloro-4-(trifluoromethyl)pyridine-2-carboxamide] was tested. Which IC50 did it give?
The IC50 was 410 nM.

How did the IC50 turn out when `O=C(NC(c1cccc(Cl)n1)C1(O)CCCCC1)c1ccnc(C(F)(F)F)c1Cl` (single isomer, unassigned) [Compound 385, 3-chloro-N-[(6-chloropyridin-2-yl)(1-hydroxycyclohexyl)methyl]-2-(trifluoromethyl)pyridine-4-carboxamide] was run?
Its IC50 is 26 nM.

`O=C(NC(c1cccc(F)c1Cl)[C@]1(O)CC[C@@H](F)CC1)c1nccnc1Cl` (single isomer, unassigned) [Compound 302, 3-chloro-N-[(2-chloro-3-fluorophenyl)(cis-4-fluoro-1-hydroxycyclohexyl)methyl]pyrazine-2-carboxamide] was tested. Which IC50 did it give?
The IC50 was 5500 nM.

Which IC50 does the source give for `O=C(NC(c1cccc(F)c1Cl)[C@]1(O)CC[C@@H](F)CC1)c1nc(Cl)ccc1Cl` (single isomer, unassigned) [Compound 279, 3,6-dichloro-N-[(2-chloro-3-fluorophenyl)(cis-4-fluoro-1-hydroxycyclohexyl)methyl]pyridine-2-carboxamide] here?
Its IC50 is 3900 nM.

`O=C(NC(c1cccc(F)c1Cl)[C@]1(O)CC[C@@H](F)CC1)c1cnnc2ccccc12` (single isomer, unassigned) [Compound 259, N-[(2-chloro-3-fluorophenyl)(cis-4-fluoro-1-hydroxycyclohexyl)methyl]cinnoline-4-carboxamide] was tested. Which IC50 did it give?
The IC50 was 1000 nM.

How did the IC50 turn out when `O=C(NC(c1cccc(-c2ccccn2)c1)C1(O)CCC(F)(F)CC1)c1cc(C(F)(F)F)ccc1Cl` (single isomer, unassigned) [Compound 190, 2-chloro-N-[(4,4-difluoro-1-hydroxycyclohexyl)[3-(pyridin-2-yl)phenyl]methyl}-5-(trifluoromethyl)benzamide] was run?
The IC50 was 490 nM.

For `CCn1cc(-c2cccc(C(NC(=O)c3c(C)cccc3C)C3(O)CCC(F)(F)CC3)c2)cn1` (stereo not drawn) [Compound 120, N{(4,4-difluoro-1-hydroxycyclohexyl)[3-(1-ethyl-1H-pyrazol-4-yl)phenyl]methyl}-2,6-dimethylbenzamide], which IC50 is on record?
Its IC50 is 740 nM.

With `O=C(NC(c1ccccc1Cl)C1(O)CCC(F)(F)CC1)c1nccc(C(F)(F)F)c1Cl` (stereo not drawn) [Compound 103, 3-chloro-N-[(2-chlorophenyl)(4,4-difluoro-1-hydroxycyclohexyl)methyl]-4-(trifluoromethyl)pyridine-2-carboxamide] as the compound, how does the IC50 read?
Its IC50 is 250 nM.

How did the IC50 turn out when `O=C(NC(c1cccc(F)c1Cl)[C@]1(O)CC[C@@H](F)CC1)c1ccccc1Cl` (single isomer, unassigned) [Compound 247, 2-chloro-N-[(2-chloro-3-fluorophenyl)(cis-4-fluoro-1-hydroxycyclohexyl)methyl]benzamide] was run?
Its IC50 is 1000 nM.

`O=C(NC(c1cccc(Cl)n1)[C@]1(O)CC[C@@H](F)CC1)c1nccc(C(F)F)c1Cl` (single isomer, unassigned) [Compound 328, 3-chloro-N-[(6-chloropyridin-2-yl)(cis-4-fluoro-1-hydroxycyclohexyl)methyl]-4-(difluoromethyl)pyridine-2-carboxamide] was tested. Which IC50 did it give?
Its IC50 is 200 nM.

How did the IC50 turn out when `O=C(NC(c1cccc(-c2cccnc2)c1)C1(O)CCCCC1)c1nccc(C(F)(F)F)c1Cl` (single isomer, unassigned) [Compound 27, 3-chloro-N-{(1-hydroxycyclohexyl)[3-(pyridin-3-yl)phenyl]methyl}-4-(trifluoromethyl)pyridine-2-carboxamide] was run?
Its IC50 is 740 nM.

For `O=C(NC(c1cccc(Cl)c1)C1(O)CCCC1)c1nccc(C(F)(F)F)c1Cl` (single isomer, unassigned) [Compound 55, 3-chloro-N-[(3-chlorophenyl)(1-hydroxycyclopentyl)methyl]-4-(trifluoromethyl)pyridine-2-carboxamide], which IC50 is on record?
Its IC50 is 8000 nM.

`O=C(NC(c1cccc(F)c1Cl)[C@]1(O)CC[C@@H](F)CC1)c1cc(Cl)ccc1Cl` (single isomer, unassigned) [Compound 251, 2,5-dichloro-N-[(2-chloro-3-fluorophenyl)(cis-4-fluoro-1-hydroxycyclohexyl)methyl]benzamide] was tested. Which IC50 did it give?
Its IC50 is 430 nM.

For `O=C(NC(c1cccc(-c2ccccn2)c1)C1(O)CCC(F)(F)CC1)c1nccc(C(F)(F)F)c1Cl` (stereo not drawn) [Compound 143, 3-chloro-N-{(4,4-difluoro-1-hydroxycyclohexyl)[3-(pyridin-2-yl)phenyl]methyl}-4-(trifluoromethyl)pyridine-2-carboxamide], which IC50 is on record?
The IC50 was 210 nM.

How did the IC50 turn out when `CCOc1cccc(C(NC(=O)c2nccc(C(F)(F)F)c2Cl)C2(O)CCCC2)c1` (stereo not drawn) [Compound 87, 3-chloro-N-[(3-ethoxyphenyl)(1-hydroxycyclopentyl)methyl]-4-(trifluoromethyl)pyridine-2-carboxamide] was run?
The IC50 was 300 nM.

For `O=C(NC(c1cnccc1Cl)[C@]1(O)CC[C@@H](F)CC1)c1nccc(C(F)(F)F)c1Cl` (single isomer, unassigned) [Compound 308, 3-chloro-N-[(4-chloropyridin-3-yl)(cis-4-fluoro-1-hydroxycyclohexyl)methyl]-4-(trifluoromethyl)pyridine-2-carboxamide], which IC50 is on record?
Its IC50 is 380 nM.

Same assay, conditions: human GlyT1

For `O=C(NC(c1cccc(Cl)n1)C1(O)CCCC1)c1nccc(C(F)(F)F)c1Cl` (single isomer, unassigned) [Compound 398, 3-chloro-N-[(6-chloropyridin-2-yl)(1-hydroxycyclopentyl)methyl]-4-(trifluoromethyl)pyridine-2-carboxamide], which IC50 is on record?
The IC50 was 7500 nM.
